Patent publication US20230382869A1, “Phenyl-3,4-dihydroisoquinolin-2(1h)-yl-ethan-1-one derivatives as dopamine d1receptor positive allosteric modulators” (Eli Lilly and Company, priority 2020, published 2023)
Marks after values point to notes of the source that are not given here.

Experiments:
[1] = test system: human D1 receptor knock-in mice; assay: Basal (Habituated) Locomotor Activity; assay type: in vivo, mouse; settings: for Basal Locomotor Activity (Total Ambulations for 60 min) Means: N = 8/group
Protocol: Locomotor activity is measured using an automated system to track movement in mice. Monitoring of mouse locomotor activity behaviors take place in transparent plastic shoebox cages having dimensions of 45×25×20 cm, with a 1 cm depth of wood chips for absorbent bedding, and covered with a ventilated filtered plastic cage top. Cages were placed in a rectangular frame containing a grid of 12 photocell beams in an 8×4 configuration (Kinder Scientific, Poway, CA) that is positioned 2.5 centimeters from the floor of the cage for the detection of body movements (ambulations) and recorded by computer.
Male human D1 receptor knock-in mice are placed in chambers and allowed to habituate to the chambers for 60 min. During the habituation period, the mice show decreasing locomotion over time, as expected. Following administration of a compound of the invention, animal movement is found to increase in a dose-dependent fashion.
The mice are randomly assigned to treatment groups. In the dose response study, each mouse is placed individually into one of the locomotor activity boxes for a 60 min. habituation period. The mice are then dosed orally using test compound in a 20% hydroxypropyl-betacyclodextrin vehicle and using a 10 mL/kg dose volume. After dosing, the mice are placed back into the LMA boxes and the total number of ambulations is recorded per 10 min interval for each mouse over a 60 min measurement period. Statistical analysis is carried out using one-way ANOVA followed by post-hoc analysis using Dunnett's Comparison test.

[2] = Fraction of drug unbound in human liver microsomes (fumic); assay type: in vitro ADME
Text: fumic is the fraction of drug unbound in human liver microsomes

Compound: C[C@H]1c2ccc(F)c(CCC(C)(C)O)c2C[C@H](CO)N1C(=O)Cc1c(F)cccc1Cl [Example 7, 2-(2-chloro-6-fluoro-phenyl)-1-[(1S,3R)-6-fluoro-3-(hydroxymethyl)-5-(3-hydroxy-3-methyl-butyl)-1-methyl-3,4-dihydro-1H-isoquinolin-2-yl]ethanone]
- Basal Locomotor Activity (Total Ambulations for 60 min) Means ([1]; 3.0 mg/kg PO): 538
- Basal Locomotor Activity (Total Ambulations for 60 min) Means ([1]; 6.0 mg/kg PO): 1111
- Basal Locomotor Activity (Total Ambulations for 60 min) Means ([1]; 10 mg/kg PO): 1471***
- Basal Locomotor Activity (Total Ambulations for 60 min) Means ([1]; 30 mg/kg PO): 3937****
- Basal Locomotor Activity (Total Ambulations for 60 min) Means ([1]; 60 mg/kg PO): 4613****
- in vivo efficacy in locomotor activation ([1]; 10, 30, and 60 mg/kg PO, habituated mice): significant in vivo efficacy
- basal movement ([1]; oral dose response, 3-60 mg/kg): increase basal movement in a dose dependent manner
- fumic [2]: 0.392
